# Measured values published in patent publication US20160101076A1, “Use of Sumoylation Inhibitors for Treating Cancer” (priority 2013, published 2016).
# Key:
# [1] = tested on: SUMO-conjugated proteins, SUMO-conjugated form of TFAP2A in BT549 cells; test: Western blot of SUMO-conjugated proteins in BT549 cells; format: cell-based, human; conditions: vs vehicle
# Description: FIG. 16. Anacardic Acid Inhibits SUMO-conjugated Proteins. Western blots were performed on protein extracts of BT549 cells treated with vehicle (V) or anacardic acid (AA) and reacted with antibodies for SUMO1, TFAP2A or GAPDH, as indicated. Equal amounts of protein were loaded in each lane. […] GAPDH control indicates equal loading of protein. MW indicates molecular weight markers.
# Western blots were performed as previously described (Cyr et al., 2014; Kulak et al., 2013). For immunoprecipitations anti-TFAP2A, anti-GFP antibody (Life Technologies) or IgG (#sc-2025, Santa Cruz Biotechnology) were cross-linked with Dynabeads protein A (Life Technologies). MCF7 protein was incubated with Dynabeads protein A-Abs complex, protein complexes were washed with DPBS (Gibco) with 0.01% Tween (Research Products International Corp.), and eluted with SDS loading buffer.
# Cells were plated ([…]/10 cm2) and treated with 10 μM gingolic or anacardic acid (Sigma) for 2-4 days and collected for qPCR, Western blot and FACS analysis.
# [2] = tested on: BT20 xenografts; test: BT20 xenografts from cells pretreated before inoculation; format: in vivo; conditions: BT20 cells pretreated for 48 hours prior to inoculation in nude mice; FIG. 8A
# Excerpt: (§1) FIGS. 8A-8D. SUMO Inhibitors Repressed Outgrowth of Xenografts. FIG. 8A. […] FIG. 8B. Tumor-free survival of nude mice (n=5 per group) inoculated with BT20 cells with animals gavaged with AA vs. vehicle. FIG. 8C. IOWA-1T cells were pre-treated with anacardic acid (AA) or vehicle and mice were followed until requiring euthanasia due to tumor size (Overall Survival). […] FIG. 8D. Nude mice were inoculated with 1×10^6, 5×10^5, or 2.5×10^5 IOWA-1T cells and animals were gavaged with either vehicle or AA; vehicle-gavaged mice developed tumors in 5, 10 and 12 days, respectively.
# (§2) To address the effects of GA and AA on tumor initiation, BT20 cells were pretreated with GA or AA compared to vehicle prior to inoculation of xenografts in nude mice. As noted in FIG. 8A, pretreatment of the cells repressed the formation of tumor xenografts, whereas, vehicle treated cells formed xenografts with a median time of 8 weeks. […] We created a breast carcinoma cell line (IOWA-1T) from the basal tumor-derived cells used in FIG. 6A. The IOWA-1T cell line rapidly forms locally advanced tumors in nude mice. Identical experiments using the IOWA-1T basal cell line confirmed that either pre-treating the cancer cells or gavaging animals with AA repressed tumor initiation of xenografts (FIGS. 8C and 8D). […]
# [3] = tested on: BT20 xenografts; test: BT20 xenografts, animals gavaged; format: in vivo; conditions: BT20 xenografts in nude mice, animals gavaged vs vehicle; FIG. 8B
# Excerpt: as §1, §2
# [4] = tested on: IOWA-1T xenografts; test: IOWA-1T xenografts from pre-treated cells; format: in vivo; conditions: IOWA-1T cells pre-treated vs vehicle, nude mice; p=0.002; FIG. 8C
# Excerpt: as §1
# (§3) To address the effects of GA and AA on tumor initiation, BT20 cells were pretreated with GA or AA compared to vehicle prior to inoculation of xenografts in nude mice. As noted in FIG. 8A, pretreatment of the cells repressed the formation of tumor xenografts, whereas, vehicle treated cells formed xenografts with a median time of 8 weeks. […] We created a breast carcinoma cell line (IOWA-1T) from the basal tumor-derived cells used in FIG. 6A. The IOWA-1T cell line rapidly forms locally advanced tumors in nude mice. Identical experiments using the IOWA-1T basal cell line confirmed that either pre-treating the cancer cells or gavaging animals with AA repressed tumor initiation of xenografts (FIGS. 8C and 8D).
# (§4) Statistical analysis was performed using the two-sided Student's T-test for continuous variables. […]
# [5] = tested on: IOWA-1T xenografts; test: IOWA-1T xenografts, animals gavaged; format: in vivo; conditions: nude mice inoculated with 1×10^6, 5×10^5 or 2.5×10^5 IOWA-1T cells, gavaged vs vehicle; p=0.025; FIG. 8D
# Excerpt: as §1, §3, §4
# [6] = tested on: Colorectal cancer stem cells (CSC); test: Stem cell markers in primary colorectal cancer stem cells (qPCR, Western blot); format: cell-based; conditions: 10 μM, 48 hours
# Description: […]: qPCR, CD44 downregulation after treatment of colorectal CSC with anacardic acid, 48 h. […]: qPCR, ALCAM (activated leucocyte cell adhesion molecule) after treatment of colorectal CSC with anacardic acid, 48 h. FIG. 17C: qPCR, EPCAM (epithelial cell adhesion molecule) after treatment of colorectal CSC with anacardic acid, 48 h. FIG. 17D: Western blot, CD44 downregulation after treatment of colorectal CSC with anacardic acid, 48 h.
# Informed consent primary colorectal tumor material was obtained during operation and was transferred to lab. Colorectal cancer stem cells (CSC) were isolated accordingly Cammareri et al, 2008 and treated with 10 μM anacardic acid within 48 hours.
structure (smiles),measurement,setting,value
"CCCCCCCCCCCCCCCc1cccc(O)c1C(=O)O [AA, Anacardic acid (C15:0)]",SUMO conjugated form of TFAP2A,[1]; Western blot FIG. 16,inhibited
same,overall expression of TFAP2A,[1]; Western blot FIG. 16,decrease slightly
same,SUMO conjugation of proteins globally,"[1]; Western blot SUMO1 antibody, FIG. 16",inhibited
same,formation of tumor xenografts (tumor free survival),[2],repressed
same,tumor formation (tumor-free survival),[3],failed to form tumors
same,tumor formation (overall survival),[4],inhibited tumor formation
same,tumor formation,[5],failed to form tumors
same,CD44 by qPCR,[6]; FIG. 17A,down regulated
same,ALCAM by qPCR,[6]; FIG. 17B,down regulated
same,EPCAM by qPCR,[6]; FIG. 17C,down regulated
same,CD44 by Western blot,[6]; FIG. 17D,reduction
"CCCCCC/C=C\CCCCCCCc1cccc(O)c1C(=O)O [GA, (Z)-6-(Pentadec-8-enyl)-2-hydroxybenzoic acid]",formation of tumor xenografts (tumor free survival),[2],repressed
